Results reported in ChEMBL document CHEMBL5316376, “Cyclopentathiophene Carboxamide Derivatives as PAFR Antagonists for Treating Ocular Diseases, Allergies, and Inflammation-Related Disorders” (ACS Med Chem Lett, 2023).

Biological target: Platelet-activating factor receptor (Homo sapiens, UniProt P25105)
Test: Antagonist activity at human PAFR expressed in HEK293 cells assessed as inhibition of PAF C-16 ligand induced receptor activation preincubated for 90 mins followed by PAF ligand addition and measured after 60 mins by HTRF IP1 assay
Assay type: functional, cell-based

Chain of Platelet-activating factor receptor (P25105 whole entry): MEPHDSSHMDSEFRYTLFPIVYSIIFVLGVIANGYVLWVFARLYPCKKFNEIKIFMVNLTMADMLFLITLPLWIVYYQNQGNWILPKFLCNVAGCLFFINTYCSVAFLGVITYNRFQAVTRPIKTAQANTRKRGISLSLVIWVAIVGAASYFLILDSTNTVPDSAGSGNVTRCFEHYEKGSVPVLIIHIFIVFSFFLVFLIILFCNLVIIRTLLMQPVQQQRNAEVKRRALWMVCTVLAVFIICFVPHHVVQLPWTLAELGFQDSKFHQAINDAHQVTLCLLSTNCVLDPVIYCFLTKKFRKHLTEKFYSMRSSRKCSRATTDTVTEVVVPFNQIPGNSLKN

IC50	Compound
1.3 nM	Cc1nnc2n1-c1sc3c(c1[C@@H](c1ccccc1Cl)NC2)C[C@@H](C(=O)NC1CCC(F)(F)CC1)C3
1.1 nM	Cc1nnc2n1-c1sc3c(c1[C@H](c1ccccc1Cl)NC2)C[C@@H](C(=O)NCc1ccccc1)C3
1.3 nM	Cc1nnc2n1-c1sc3c(c1[C@@H](c1ccccc1Cl)NC2)C[C@@H](C(=O)NC1(c2ccc(Cl)cn2)CC1)C3
0.4 nM	Cc1nnc2n1-c1sc3c(c1[C@@H](c1ccccc1Cl)NC2)C[C@@H](C(=O)NCc1ccc(C(F)(F)F)cc1)C3
